Tests used:
[1] = test system: several cancer-derived cell lines; parameters: method as in PMID 19697385; details: cited from earlier work
MDA-MB-231 cells = assay: Live cell imaging with fluorescent probe 12; format: cell-based, human; details: 30 min preincubation, 100-fold excess competitor
Procedure: MDA-MB-231 cells were seeded on fibronectin-coated coverslips at 70% confluency in a 48-well plate and cultured at 37 °C and 5% CO2. After 24 h, culture medium was replaced with fresh medium containing a 20 µM competitor or an equal volume of DMSO vehicle for 30 min at 37 °C and 5% CO2, followed by addition of 0.2 µM (final concentration) fluorescent probe 12. After 1 h incubation at 37 °C and 5% CO2, the coverslips were mounted onto a glass slide with a mounting medium with or without 0.5 µg/ml DAPI.
The fluorescent images were acquired with a confocal microscope (Leica TCS SP5) using 405 nm excitation and 562 nm excitation. For the ER co-localization studies, 1 uM ER-Tracker™ Blue-White DPX was added to the medium after 1 h incubation with probe 12. After 5 min incubation, the coverslips were mounted onto a glass slide and the images were acquired as described above.
CT7 photo-affinity labeling and click chemistry were done as previously described.14 Briefly, SRMs (sheep rough microsomes, isolated as described in reference15) containing 100 nM Sec61 were treated with 10 µM ipomoeassin F/mycolactone or 1% DMSO for 30 min at 0°C, followed by incubation with 100 nM CT7 for 10 min RT. Samples were then photolyzed for 10 min and crosslinked proteins were detected by click chemistry, SDS-PAGE, and in-gel fluorescent scanning (Typhoon Trio, GE Healthcare). […]

HCT116 = assay: cells; format: cell-based; details: Homo sapiens, HCT-116; HCT116, 72 h, Alamar Blue, assayed separately; read-out: Cytotoxicity (IC50)
Procedure: AlamarBlue Cytotoxicity Assay
MDA-MB-231, MCF-10A and HCT116. Viable cells were counted with a hemocytometer immediately before each experiment . Experiments were done in triplicate. First, 100 μL of MDA-MB-231 cells or MCF-10A cells at the density of 50,000 cells/mL was seeded in a 96-well plate (5,000 cells/well) and then incubated at 37 °C and 5% CO2 for 24 h. The compounds were dissolved in DMSO (dimethyl sulfoxide) to make drug stocks (10 mM). The stock solutions were diluted with the complete DMEM high glucose culture medium to make a series of gradient fresh working solutions right before each test. Subsequently, the cells were treated with 100 μL of the freshly made gradient working solution in a total volume of 200 μL/well for 72 h. After that, the media were discarded and 200 μL of the fresh complete medium containing 10% of AlamarBlue (resazurin) stock solution was added to each well. The plate was then incubated at 37 °C and 5% CO2 for another 3 h. Emission of each well at 620 nm was detected by a microplate reader (BioTek Synergy H1) at excitation 580 nm. For HCT116 WT and mutant lines, cells were seeded at 1000 cells/ well in complete McCoys medium. Compounds were diluted from a DMSO stock into culture medium as described above. Cells were treated for 96 h, then viability measured with AlamarBlue, detected using the conditions described but with a BMG Fluostar Optima Microplate Reader. The percentage of viability compared to the negative control (DMSO-treated cells) was determined. […]
HCT116 and HEK293T. Viable cells were counted using an automated cell counter (BioRad TC20) before each experiment. […] Emission of each well at 620 nm was detected by a microplate reader (Perkin Elmer EnSpire) at excitation 580 nm. The percentage of viability compared to the negative control (DMSO -treated cells) was determined. […]
Figure S1. […] (C) HCT116 colon carcinoma cells were treated with increasing concentrations of analogues 8, 14, 15, CT8, ipomoeassin F or carrier (0.1% DMSO) and cell viability was assessed at 72 h by the Alamar Blue assay (mean ± S.D., n = 4). […]

[2] = test system: GLuc secretion in SH-SY5Y cells; assay: SH-SY5Y GLuc secretion assay; format: cell-based; details: Homo sapiens, read-out: GLuc secretion inhibition EC50

Q: Which results are given for `C/C=C(\C)C(=O)O[C@@H]1[C@@H](O)[C@@H]2O[C@H]3[C@H](O[C@@H](CCCCC)CCCCCCC(=O)CCC(=O)OC[C@@H](O2)[C@H]1OC(=O)/C=C/c1ccccc1)O[C@H](C)[C@H](OC(C)=O)[C@@H]3O` [ipomoeassin F]?
A: IC50 values against several cancer-derived cell lines [1]: single-digit nanomolar; effect of competitor on fluorescence signal of 12 (MDA-MB-231 cells): almost completely abolished; IC50 (HCT116): 8 nM; EC50 [2]: ~120 nM
